Values after ≈ are worked out from the molar mass of the structure shown. Like-named read-outs stand apart in the source and are kept apart here. Blank lines part the entries; values can stand above or below the compound they belong to.
Columns and labels:
Format in all cases: cell-based, Staphylococcus aureus
MRSA USA300 = assay: Antibacterial activity assay (MIC by broth microdilution, MBC by subculture)
Experimental: The antimicrobial activity was based on MIC and MBC; MIC is the minimum inhibitory concentration and MBC is the minimum bactericidal concentration. The MIC of individual test agents against MRSA USA300 strains was determined using the broth microdilution method according to CLSI guidelines. Briefly, overnight bacterial cultures in LB medium were diluted 1:50 in fresh LB medium and incubated at 37° C. until reaching an OD600 of 0.5 to 0.6. Bacterial suspensions were diluted to a final concentration of 5×10^5 cfu/mL in fresh CAMHB and then exposed to each test agent at increasing doses in triplicate in 96-well plates for 24 hours at 37° C. The MIC of each agent was defined as the lowest concentration without visible bacterial growth. […] The lowest broth dilution that had no viable bacteria was considered the MBC.
Then, the combination effect was measured by calculating their corresponding fractional inhibitory concentration index (FICI) with the equation ΣFIC (FICi)=FICA+FICB=(CombA/MICA)+(CombB/MICB), where MICA and MICB are the MICs of drugs A and B alone, respectively, and CombA and CombB are the concentrations of drugs A and B in combination, respectively. […] was defined as an FICI≤0.5, no interaction was defined as an FICI>0.5-4.0, and antagonism was defined as an FICI>4.

S. aureus ATCC29213 = assay: Antibacterial activity assay (MIC, broth microdilution); conditions: for MIC: Staphylococcus aureus
S. aureus NCTC8325 = assay: as above; conditions: for MIC: Staphylococcus aureus
MRSA ATCC33591 = assay: as above; conditions: for MIC: Staphylococcus aureus
MRSA ATCC33592 = assay: as above; conditions: for MIC: Staphylococcus aureus
MRSA ATCC43300 = assay: as above; conditions: for MIC: Staphylococcus aureus
MRSA ATCC49476 = assay: as above; conditions: for MIC: Staphylococcus aureus
MRSA SCCmec VT = assay: as above; conditions: for MIC: Staphylococcus aureus, MRSA
VRSA SJC1200 = assay: as above; conditions: for MIC: Staphylococcus aureus, VRSA
S. aureus DAP-NS = assay: as above; conditions: for MIC: Staphylococcus aureus
[1] = test system: MRSA USA300 persister cells; assay: Persister killing assay; conditions: 16×MIC, 16 mg/L; FIG. 1
Experimental: (§1) The number of viable bacteria in broth after each exposure period was enumerated by a cfu assay and expressed as cfu/mL; the data shown are the mean±SD (standard deviation) of independent experiments. […] The number of viable bacteria in the broth after each exposure period was calculated by a cfu assay (cfu/mL); the data are shown as the mean±SD of three independent experiments (n=3 for each group). Since the standard deviation of each point is very small, the error line is not shown in each graph. The horizontal dashed line in the upper left graph and the upper right graph represents […] of the bacterial cells killed. In addition, the blank controls in FIG. 1 are shown as filled diamonds.
(§2) Bacteria were collected by centrifugation at 4000×g for 10 min at 4° C., washed with ice-cold PBS, and suspended in PBS with test agents. Controls received DMSO and ethanol vehicles at concentrations equal to those for drug-treated bacteria. At the designated times, the number of viable bacteria was assessed by serial dilution of a 100 μL aliquot bacterial suspension in PBS and then spread onto LB agar plates. After incubation at 37° C. for 18-24 hours, the number of colonies was counted and expressed as cfu/mL.

[2] = test system: S. aureus NCTC8325 persister cells; assay: Persister killing assay; conditions: 16×MIC, 16 mg/L; FIG. 1
Experimental: as §1, §2

MIC (MRSA USA300; +8 mg/L DHA): 0.5 µg/mL
MIC (MRSA USA300; +8 mg/L DHA, MRSA USA300 (Table 4)): 0.5 µg/mL
MIC (MRSA USA300; Staphylococcus aureus, amide compound alone, read-out: MIC): > 64 µg/mL
MIC (MRSA USA300; agent alone, MRSA USA300 (Table 4)): >64 µg/mL
MIC (S. aureus ATCC29213; ATCC29213, +8 mg/L DHA): 0.5 µg/mL (≈ 1.08 µM)
MIC (S. aureus ATCC29213; ATCC29213, agent alone): 64 µg/mL (≈ 138 µM)
MIC (S. aureus NCTC8325; NCTC8325, +8 mg/L DHA): 0.5 µg/mL (≈ 1.08 µM)
MIC (S. aureus NCTC8325; NCTC8325, agent alone): 4 µg/mL (≈ 8.61 µM)
MIC (MRSA ATCC33591; +8 mg/L DHA): 0.5 µg/mL (≈ 1.08 µM)
MIC (MRSA ATCC33591; agent alone): > 64 µg/mL
MIC (MRSA ATCC33592; +8 mg/L DHA): 0.5 µg/mL (≈ 1.08 µM)
MIC (MRSA ATCC33592; agent alone): > 64 µg/mL
MIC (MRSA ATCC43300; +8 mg/L DHA): 0.5 µg/mL (≈ 1.08 µM)
MIC (MRSA ATCC43300; agent alone): > 64 µg/mL
MIC (MRSA ATCC49476; +8 mg/L DHA): 0.5 µg/mL (≈ 1.08 µM)
MIC (MRSA ATCC49476; agent alone): > 64 µg/mL
MIC (MRSA SCCmec VT; +8 mg/L DHA): 0.5 µg/mL (≈ 1.08 µM)
MIC (MRSA SCCmec VT; agent alone): > 64 µg/mL
MIC (VRSA SJC1200; +8 mg/L DHA): 0.5 µg/mL (≈ 1.08 µM)
MIC (VRSA SJC1200; agent alone): > 64 µg/mL
MIC (S. aureus DAP-NS; +8 mg/L DHA): 0.5 µg/mL (≈ 1.08 µM)
MIC (S. aureus DAP-NS; agent alone): 32 µg/mL (≈ 68.8 µM)
Compound: CNC(=O)c1cc(Oc2ccc(NC(=O)Nc3ccc(Cl)c(C(F)(F)F)c3)cc2)ccn1 [Sorafenib]
MBC (MRSA USA300; +8 mg/L DHA): 1 µg/mL
combination effect (MRSA USA300; MIC, +8 mg/L DHA, MRSA USA300 (Table 4)): (Syn) (Synergy (Syn) was defined as an FICI≤0.5)
MBC (MRSA USA300; Staphylococcus aureus, amide compound alone, read-out: MBC): > 64 µg/mL
combination effect (S. aureus ATCC29213; MIC, +8 mg/L DHA): (Syn) (Synergy (Syn) was defined as an FICI≤0.5)
combination effect (S. aureus NCTC8325; MIC, +8 mg/L DHA): (Syn) (Synergy (Syn) was defined as an FICI≤0.5)
combination effect (MRSA ATCC33591; MIC, +8 mg/L DHA): (Syn) (Synergy (Syn) was defined as an FICI≤0.5)
combination effect (MRSA ATCC33592; MIC, +8 mg/L DHA): (Syn) (Synergy (Syn) was defined as an FICI≤0.5)
combination effect (MRSA ATCC43300; MIC, +8 mg/L DHA): (Syn) (Synergy (Syn) was defined as an FICI≤0.5)
combination effect (MRSA ATCC49476; MIC, +8 mg/L DHA): (Syn) (Synergy (Syn) was defined as an FICI≤0.5)
combination effect (MRSA SCCmec VT; MIC, +8 mg/L DHA): (Syn) (Synergy (Syn) was defined as an FICI≤0.5)
combination effect (VRSA SJC1200; MIC, +8 mg/L DHA): (Syn) (Synergy (Syn) was defined as an FICI≤0.5)
combination effect (S. aureus DAP-NS; MIC, +8 mg/L DHA): (Syn) (Synergy (Syn) was defined as an FICI≤0.5)

Compound: CN[C@H](CC(C)C)C(=O)N[C@H]1C(=O)N[C@@H](CC(N)=O)C(=O)N[C@H]2C(=O)N[C@H]3C(=O)N[C@H](C(=O)N[C@H](C(=O)O)c4cc(O)cc(O)c4-c4cc3ccc4O)[C@H](O)c3ccc(c(Cl)c3)Oc3cc2cc(c3O[C@@H]2O[C@H](CO)[C@@H](O)[C@H](O)[C@H]2O[C@H]2C[C@](C)(N)[C@H](O)[C@H](C)O2)Oc2ccc(cc2Cl)[C@H]1O [vancomycin, reference compound]
killing of persister cells (in words) [1]: resistant to the killing activity
killing of persister cells (in words) [2]: resistant to the killing activity

MIC (MRSA USA300; Staphylococcus aureus, fatty acid alone, read-out: MIC fatty acid): 256 µg/mL
Compound: CC/C=C\C/C=C\C/C=C\CCCCCCCC(=O)O [α- linolenic acid, α-linolenic acid]
MBC (MRSA USA300; Staphylococcus aureus, fatty acid alone, read-out: MBC fatty acid): 1020 µg/mL
